US10208064B2, “Inhibitors of the renal outer medullary potassium channel” (MERCK SHARP & DOHME CORP., priority 2014, dated 2019)

Target: ROMK (Kir1.1) channel (Homo sapiens (Human), UniProt P48048)
Test: Thallium Flux Assay
Assay type: cell-based
Procedure: The following Thallium Flux Assay was performed on each of the final product compounds in the Examples.
A Thallium Flux Assay was performed on the compounds of the Examples. This assay has been described previously; see, e.g., PCT Published Application WO 2013/062900.

Chain of ROMK (Kir1.1) channel (P48048 whole entry): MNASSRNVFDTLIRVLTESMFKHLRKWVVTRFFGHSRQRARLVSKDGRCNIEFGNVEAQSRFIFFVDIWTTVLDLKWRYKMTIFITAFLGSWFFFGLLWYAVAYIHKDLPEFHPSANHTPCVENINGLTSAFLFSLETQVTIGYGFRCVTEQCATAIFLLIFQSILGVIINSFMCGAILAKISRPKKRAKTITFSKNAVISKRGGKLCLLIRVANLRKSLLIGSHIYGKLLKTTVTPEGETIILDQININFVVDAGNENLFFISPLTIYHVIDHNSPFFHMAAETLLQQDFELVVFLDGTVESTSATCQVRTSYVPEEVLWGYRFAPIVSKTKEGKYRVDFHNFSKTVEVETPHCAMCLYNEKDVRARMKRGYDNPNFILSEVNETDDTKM

Structure (SMILES) | IC50
C[C@H]1CC2(CCN(C[C@@H](O)c3ccc4c(ccc5nnnn54)c3)CC2)C(=O)N1C1=CC(=O)OC1 [Example 19, (S)-8-((S)-2-hydroxy-2-(tetrazolo[1,5-a]quinolin-7-yl)ethyl)-3-methyl-2-(5-oxo-2,5-dihydrofuran-3-yl)-2,8-diazaspiro[4.5]decan-1-one] | 10 nM
CC1=C(N2CCC3(CCN(C[C@H](O)c4ccc5c(ccc6nnnn65)c4)CC3)C2=O)COC1=O [Example 20, (R)-8-(2-hydroxy-2-(tetrazolo[1,5-a]quinolin-7-yl)ethyl)-2-(4-methyl-5-oxo-2,5-dihydrofuran-3-yl)-2,8-diazaspiro[4.5]decan-1-one] | 11 nM
CC1=C(N2CCC3(CCN(C[C@@H](O)c4ccc5c(ccc6nnnn65)c4)CC3)C2=O)COC1=O [Example 21, (S)-8-(2-hydroxy-2-(tetrazolo[1,5-a]quinolin-7-yl)ethyl)-2-(4-methyl-5-oxo-2,5-dihydrofuran-3-yl)-2,8-diazaspiro[4.5]decan-1-one] | 19 nM
CC1=C(N2CCC3(CCN(C[C@@H](O)c4ccc5c(ccc6nnnn65)n4)CC3)C2=O)COC1=O [Example 22, (R)-8-(2-hydroxy-2-(tetrazolo[1,5-a][1,5]naphthyridin-7-yl)ethyl)-2-(4-methyl-5-oxo-2,5-dihydrofuran-3-yl)-2,8-diazaspiro[4.5]decan-1-one] | 185 nM
CC1=C(N2CCC3(CCN(C[C@H](O)c4ccc5c(c4C)Cn4nnnc4-5)CC3)C2=O)COC1=O [Example 23, (R)-8-(2-hydroxy-2-(6-methyl-5H-tetrazolo[5,1-a]isoindol-7-yl)ethyl)-2-(4-methyl-5-oxo-2,5-dihydrofuran-3-yl)-2,8-diazaspiro[4.5]decan-1-one] | 17 nM
CC1=C(N2CCC3(CCN(C[C@@H](O)c4ccc5c(c4C)Cn4nnnc4-5)CC3)C2=O)COC1=O [Example 24, (S)-8-(2-hydroxy-2-(6-methyl-5H-tetrazolo[5,1-a]isoindol-7-yl)ethyl)-2-(4-methyl-5-oxo-2,5-dihydrofuran-3-yl)-2,8-diazaspiro[4.5]decan-1-one] | 16 nM
CC1=C(N2CCC3(CCN(C[C@H](O)c4cc5c(cc4C4CC4)-c4nnnn4C5)CC3)C2=O)COC1=O [Example 25, (R)-8-(2-(8-cyclopropyl-5H-tetrazolo[5,1-a]isoindol-7-yl)-2-hydroxyethyl)-2-(4-methyl-5-oxo-2,5-dihydrofuran-3-yl)-2,8-diazaspiro[4.5]decan-1-one] | 128 nM
CC1=C(N2CCC3(CCN(C[C@@H](O)c4cc5c(cc4C4CC4)-c4nnnn4C5)CC3)C2=O)COC1=O [Example 26, (S)-8-(2-(8-cyclopropyl-5H-tetrazolo[5,1-a]isoindol-7-yl)-2-hydroxyethyl)-2-(4-methyl-5-oxo-2,5-dihydrofuran-3-yl)-2,8-diazaspiro[4.5]decan-1-one] | 82 nM
CC1=C(N2CCC3(CCN(CC(O)c4ccc5c(c4)[C@H](C)n4nnnc4-5)CC3)C2=O)COC1=O (stereo partly drawn) [Example 27A, 8-(2-hydroxy-2-((S)-5-methyl-5H-tetrazolo[5,1-α]isoindol-7-yl)ethyl)-2-(4-methyl-5-oxo-2,5-dihydrofuran-3-yl)-2,8-diazaspiro[4.5]decan-1-one] | 87 nM
CC1=C(N2CCC3(CCN(CC(O)c4ccc5c(c4)[C@@H](C)n4nnnc4-5)CC3)C2=O)COC1=O (stereo partly drawn) [Example 27B, 8-(2-hydroxy-2-((R)-5-methyl-5H-tetrazolo[5,1-α]isoindol-7-yl)ethyl)-2-(4-methyl-5-oxo-2,5-dihydrofuran-3-yl)-2,8-diazaspiro[4.5]decan-1-one] | 27 nM
CC1=C(N2CCC3(CCN(C[C@H](O)c4ccc5c(c4)[C@@H](C)n4nnnc4-5)CC3)C2=O)COC1=O [Example 27C, 8-((R)-2-hydroxy-2-((R)-5-methyl-5H-tetrazolo[5,1-a]isoindol-7-yl)ethyl)-2-(4-methyl-5-oxo-2,5-dihydrofuran-3-yl)-2,8-diazaspiro[4.5]decan-1-one] | 36 nM
CC1=C(N2CCC3(CCN(C[C@@H](O)c4ccc5c(c4)[C@@H](C)n4nnnc4-5)CC3)C2=O)COC1=O [Example 27D, 8-((S)-2-hydroxy-2-((R)-5-methyl-5H-tetrazolo[5,1-a]isoindol-7-yl)ethyl)-2-(4-methyl-5-oxo-2,5-dihydrofuran-3-yl)-2,8-diazaspiro[4.5]decan-1-one] | 29 nM
CC1=C(N2CCC3(CCN([C@H](CO)c4ccc5c(ccc6nnnn65)c4)CC3)C2=O)COC1=O [Example 28A, (S)-8-(2-hydroxy-1-(tetrazolo[1,5-a]quinolin-7-yl)ethyl)-2-(4-methyl-5-oxo-2,5-dihydrofuran-3-yl)-2,8-diazaspiro[4.5]decan-1-one] | 44 nM
CC1=C(N2CCC3(CCN(C(CO)c4ccc5c(c4)CCc4nnnn4-5)CC3)C2=O)COC1=O (stereo not shown) [Example 29, 8-(1-(4,5-dihydrotetrazolo[1,5-a]quinolin-7-yl)-2-hydroxyethyl)-2-(4-methyl-5-oxo-2,5-dihydrofuran-3-yl)-2,8-diazaspiro[4.5]decan-1-one] | 421 nM
CC1=C(N2CCC3(CCN(CCc4ccc5c(c4)Cn4nnnc4-5)CC3)C2=O)COC1=O [Example 30, 8-(2-(5H-tetrazolo[5,1-a]isoindol-7-yl)ethyl)-2-(4-methyl-5-oxo-2,5-dihydrofuran-3-yl)-2,8-diazaspiro[4.5]decan-1-one] | 6 nM
CO[C@@H](CN1CCC2(CC1)CCN(C1=C(C)C(=O)OC1)C2=O)c1ccc2c(c1)Cn1nnnc1-2 [Example 31, (R)-8-(2-methoxy-2-(5H-tetrazolo[5,1-a]isoindol-7-yl)ethyl)-2-(4-methyl-5-oxo-2,5-dihydrofuran-3-yl)-2,8-diazaspiro[4.5]decan-1-one] | 239 nM
